Assay results: publication PMC12856912, “Structure-Guided Semisynthesis of Blasticidin S–Amicetin Chimeras as Selective Ribosome Inhibitors” (Journal of the American Chemical Society, 2026)
Values after ≈ are worked out from the molar mass of the structure shown.

Experiments:
[1] = test system: Vancomycin resistant E. faecalis NR-31972 (VRE); experiment: Antibacterial MIC assay, serial dilution; format: cell-based, Enterococcus faecalis; conditions: for Selectivity index (CC50/MIC) VRE NR-31972: CC50 Vero cells / MIC; for MIC: Enterococcus faecalis, VRE, 24 h, read-out: MIC Vancomycin resistant E. faecalis NR-31972 (VRE)
Protocol: (§1) Media and solutions were autoclaved or sterile filtered prior to use and mani pulations were carri ed out in a laminar flow hood. Antibacterial t esting was performed in polypropylene 96-well flat bottom plates. The minimal inhibitory concentration of blasticidin S (1) hydrochloride, methyl ester (3) trihydrochloride, P10 (2) tri-T FA , phenet hyl amide (4) tri -T FA , an d blastimidines M 19– 22, A, 29–32, P 37–40, and C 43–46 (salt forms as described in the te xt) were assessed against Staphylococcus aureus ΔNorA, S. aureus ATCC 6538P, methicillin-resistant S. aureus (MRSA) ATCC 43300, Enterococcus faecalis ATCC 29212, vancomycin- resistant Enterococcus, Klebsiella pneumoniae ATCC 29665, Pseudomonas aeruginosa,and Acinetobacter baumannii ATCC 17978 using serial dilutions. Doxycycline (Gold Bio) as a positive control and the vehicle as a negative control. Stock solutions of each compound were prepared at 2.56 mg/mL in 50% DMSO/water and serially diluted in 50% DMSO/water to create master plates. From the master plates, 10 μ L o f each dilution was applied to test plates using a Bravo automated liquid transfer system (Agilent).
(§2) Bacteria previously grown overnight (37 °C, 120–200 RPM), in LB broth were diluted to an OD600 of 0.05 in cation-adjusted Mueller-Hinton broth (CAMHB), grown to an OD600 of ~0.5, and diluted to an OD600 of 0.004 in CAMHB . These diluted cultures were applied to the test plates (190 μL per test well) resulting in final concentrations of the test compounds of 128–1 μg/ m L.
(§3) Growth controls (wells with inoculated media but no vehicle or test compounds) were included to assess any potential toxicity from the vehicle. Th e plates were in cubated at 37 °C for 16–18 h, except fo r VRE and E. faecalis, which w ere in cub ated at 37 °C fo r 24 h. Inh ibition was determined by measuring the optical density at 600 nm (OD60 0) with a Cytation 3 pl ate read er (BioTek). The optical density measurem ents were no rmalized to the positive and negative controls and the vehicle and growth controls were compared and found to b e indistinguishable, indicating no toxicity from […]
(§4) the vehicle used. The MIC was the lowest concentration that inhibited >90% of growth. Two biological replicates were performed in duplicate. MIC values are reported as a range from […]

[2] = test system: Methicillin resistant Staphylococcus epidermidis (MRSE) ATCC 35984 NRS101; experiment: Antibacterial MIC assay, serial dilution; format: cell-based; conditions: for Selectivity index (CC50/MIC) MRSE 35984: CC50 Vero cells / MIC; for MIC: Staphylococcus epidermidis, read-out: MIC Methicillin resistant Staphylococcus epidermidis (MRSE) ATCC 35984 NRS101
[3] = Cytotoxicity assay (MTS/PMS); format: cell-based; conditions: monkey, Vero cells (monkey kidney epithelial cells); 24 h treatment, MTS/PMS, average of three biological replicates; read-out: CC50 against Vero cells
Protocol: The potential cytotoxic eff ect of the test compounds was investigated using Vero cells (monkey kidney epitheli al cells) following est ablished protocols.3 Briefly, Vero cells were plated into 96-well plates supplemented with Dulbecco's Modified Eagle Medium (DMEM) containing 10% fetal bovine serum (FBS). The cells were placed in a humidified 37 °C environment for incubation with 5% CO₂ for 24 h to allow proper adherence and growth. Following the incubation period, the culture medium was replaced with fresh DMEM containing serial dilutions of the test compounds, while the v ehicle alon e w as used as a negative control. The treated cells were incubated for an additional 24 h. To assess cell viability, the MTS/PMS reagent was added to each well and incubat ed for 4 h. A microplate reader (S ynergy H1, BioTek, USA) was used to m easure absorbance at 490 nm. Al l experiments wer e cond ucted usingthree biologi cal replicates .
Ta b l e S2. CC50 valuesa (µg/mL) against Vero cells […]
aValues at which the cell viability (normalized to vehicle control) was 50%. […]

[4] = test system: Methicillin resistant S. aureus (MRSA) USA300; experiment: Antibacterial MIC assay, serial dilution; format: cell-based, Staphylococcus aureus; conditions: for Selectivity index (CC50/MIC) MRSA USA300: CC50 Vero cells / MIC; for MIC: Staphylococcus aureus, read-out: MIC Methicillin resistant S. aureus (MRSA) USA300
[5] = test system: Vancomycin resistant Enterococcus faecium NR-31909 (VRE); experiment: Antibacterial MIC assay, serial dilution; format: cell-based; conditions: for Selectivity index (CC50/MIC) VRE NR-31909: CC50 Vero cells / MIC; for MIC: Enterococcus faecium, VRE, 24 h, read-out: MIC Vancomycin resistant Enterococcus faecium NR-31909 (VRE)
Protocol: as §1, §2, §3, §4

[6] = test system: Klebsiella pneumoniae ATCC 29665; experiment: Antibacterial MIC assay, serial dilution; format: cell-based; conditions: for Selectivity index (CC50/MIC) K. pneumoniae: CC50 Vero cells / MIC; for MIC: Klebsiella pneumoniae, ATCC29665, range from biological replicates, read-out: MIC K. pneumoniae ATCC-29665
Protocol: as §1, §2, §3, §4

[7] = test system: Acinetobacter baumannii ATCC 17978; experiment: Antibacterial MIC assay, serial dilution; format: cell-based; conditions: ATCC17978, range from biological replicates
Protocol: as §1, §2, §3, §4

[8] = test system: Enterococcus faecalis ATCC 29212; experiment: Antibacterial MIC assay, serial dilution; format: cell-based; conditions: for Selectivity index (CC50/MIC) E. faecalis 29212: CC50 Vero cells / MIC; for MIC: Enterococcus faecalis, ATCC 29112 / ATCC 29212, 24 h, read-out: MIC E. faecalis ATCC 29112
Protocol: as §1, §2, §3, §4

Pseudomonas aeruginosa = experiment: Antibacterial MIC assay, serial dilution; format: cell-based; conditions: for Selectivity index (CC50/MIC) P. aeruginosa: CC50 Vero cells / MIC; for MIC: Pseudomonas aeruginosa, range from biological replicates, read-out: MIC P. aeruginosa
Protocol: as §1, §2, §3, §4

MRSA ATCC 43300 = experiment: Antibacterial MIC assay, serial dilution; format: cell-based, Staphylococcus aureus; conditions: for Selectivity index (CC50/MIC) MRSA 43300: CC50 Vero cells / MIC; for MIC: Staphylococcus aureus, read-out: MIC MRSA ATCC 43300
Protocol: as §1, §2, §3, §4

S. aureus ΔNorA = experiment: Antibacterial MIC assay, serial dilution; format: cell-based, Staphylococcus aureus; conditions: for Selectivity index (CC50/MIC) S. aureus ΔNorA: CC50 Vero cells / MIC; for MIC: Staphylococcus aureus, read-out: MIC S. aureus ∆NorA
Protocol: as §1, §2, §3, §4

S. aureus ATCC 6538P = experiment: Antibacterial MIC assay, serial dilution; format: cell-based, Staphylococcus aureus; conditions: for Selectivity index (CC50/MIC) S. aureus 6538P: CC50 Vero cells / MIC; for MIC: Staphylococcus aureus, ATCC 6538P / ATCC 6539P, read-out: MIC S. aureus ATCC 6539P
Protocol: as §1, §2, §3, §4

[9] = test system: Escherichia coli BAA-2452; experiment: Antibacterial MIC assay, serial dilution; format: cell-based; conditions: BAA2452, read-out: MIC Escherichia coli BAA-2452

| Compound | Selectivity index (CC50/MIC) VRE NR-31972 [1] | MIC [1] [µg/mL] | Selectivity index (CC50/MIC) MRSE 35984 [2] | MIC [2] [µg/mL] | CC50 at 24 h [3] [µg/mL] | Selectivity index (CC50/MIC) MRSA USA300 [4] | MIC [4] [µg/mL] | Selectivity index (CC50/MIC) VRE NR-31909 [5] | MIC [5] [µg/mL] | Selectivity index (CC50/MIC) K. pneumoniae [6] | MIC [6] [µg/mL] | MIC [7] [µg/mL] | Selectivity index (CC50/MIC) E. faecalis 29212 [8] | MIC [8] [µg/mL] | Selectivity index (CC50/MIC) P. aeruginosa (Pseudomonas aeruginosa) | MIC (Pseudomonas aeruginosa) [µg/mL] | Selectivity index (CC50/MIC) MRSA 43300 (MRSA ATCC 43300) | MIC (MRSA ATCC 43300) [µg/mL] | Selectivity index (CC50/MIC) S. aureus ΔNorA (S. aureus ΔNorA) | MIC (S. aureus ΔNorA) [µg/mL] | further results |
| --- | --- | --- | --- | --- | --- | --- | --- | --- | --- | --- | --- | --- | --- | --- | --- | --- | --- | --- | --- | --- | --- |
| CN(CC[C@H](N)CC(=O)N[C@H]1C=C[C@H](n2ccc(NC(=O)c3ccc(N)cc3)nc2=O)O[C@@H]1C(=O)O)C(=N)N [Blastimidine C2] | 0.5 | 128 (≈ 236 µM) | <0.5 | > 128 | 66 (≈ 122 µM) | 0.5 | 128 (≈ 236 µM) | 1.0 | 64 (≈ 118 µM) | 1.0 | 64 (≈ 118 µM) | > 128 | 1.0 | 64 (≈ 118 µM) | <0.5 | > 128 | <0.5 | > 128 | <0.5 | > 128 | Selectivity index (CC50/MIC) S. aureus 6538P (S. aureus ATCC 6538P): <0.5; MIC (S. aureus ATCC 6538P): > 128 µg/mL; MIC [9]: 64 µg/mL (≈ 118 µM) |
| CNc1ccc(C(=O)Nc2ccn([C@H]3C=C[C@H](NC(=O)C[C@@H](N)CCN(C)C(=N)N)[C@@H](C(=O)O)O3)c(=O)n2)cc1 [Blastimidine C3] | 1.1 | 128 (≈ 230 µM) | <1.1 | > 128 | 142 (≈ 256 µM) | 1.1 | 128 (≈ 230 µM) | 2.2 | 64 (≈ 115 µM) | 1.7 | 64 to 128 (≈ 115 to 230 µM) | > 128 | 2.2 | 64 (≈ 115 µM) | <1.1 | > 128 | <1.1 | > 128 | <1.1 | > 128 | Selectivity index (CC50/MIC) S. aureus 6538P (S. aureus ATCC 6538P): <1.1; MIC (S. aureus ATCC 6538P): > 128 µg/mL; MIC [9]: > 128 µg/mL |
| CN(CC[C@H](N)CC(=O)N[C@H]1C=C[C@H](n2ccc(NC(=O)c3ccc(NC(=O)[C@@](C)(N)CO)cc3)nc2=O)O[C@@H]1C(=O)O)C(=N)N [Blastimidine C5] | <1.4 | > 128 | <1.4 | > 128 | 177 (≈ 275 µM) | <1.4 | > 128 | <1.4 | > 128 | <1.4 | > 128 | > 128 | <1.4 | > 128 | <1.4 | > 128 | <1.4 | > 128 | <1.4 | > 128 | Selectivity index (CC50/MIC) S. aureus 6538P (S. aureus ATCC 6538P): <1.4; MIC (S. aureus ATCC 6538P): > 128 µg/mL; MIC [9]: > 128 µg/mL |
| COC(=O)[C@H]1O[C@@H](n2ccc(N)nc2=O)C=C[C@@H]1NC(=O)C[C@@H](N)CCN(C)C(=N)N [Blastimidine M1, blasticidin S methyl ester] | 0.9 | 32 (≈ 73.3 µM) | 1.8 | 16 (≈ 36.7 µM) | 28 (≈ 64.2 µM) | 3.6 | 8 (≈ 18.3 µM) | 0.4 | 64 (≈ 147 µM) | 0.4 | 64 (≈ 147 µM) | 128 (≈ 293 µM) | 1.8 | 16 (≈ 36.7 µM) | 0.4 | 64 (≈ 147 µM) | 1.3 | 16 to 32 (≈ 36.7 to 73.3 µM) | 0.3 | 64 to 128 (≈ 147 to 293 µM) | Selectivity index (CC50/MIC) S. aureus 6538P (S. aureus ATCC 6538P): 1.3; MIC (S. aureus ATCC 6538P): 16 to 32 µg/mL (≈ 36.7 to 73.3 µM); MIC [9]: 8 µg/mL (≈ 18.3 µM) |
